Measurements as given in patent US20230066156A1, “6-SUBSTITUTED, 22-CYANO HYODEOXYCHOLANIC ANALOGUES AND USES THEREOF” (PRECISION BIO-THERAPEUTICS S.R.L., priority 2019, published 2023).

Tested on: THP1 cells
Assay: Relative mRNA expression of pro- and anti-inflammatory genes by Real-Time PCR in LPS-activated THP1 cells
Assay type: cell-based, human
Settings: 10 μM, normalized to GAPDH, FIG. 1
Protocol: THP-1, a human monocytic cell line derived from an acute monocytic leukemia patient, were cultured and maintained at 37° C. and 5% CO2 in RPMI with 10% FBS, 1% glutamine and 1% penicillin/streptomycin. THP1 cells (1.5×10^6) were serum starved for 6 h and then classically activated with LPS (1 ng/ml, L2880; Sigma-Aldrich), and exposed or not to GPBAR1 agonists previously tested in transactivation assay.
Furthermore, selected compounds exert in vitro activity on GPBAR1-target genes reducing the production of pro-inflammatory cytokines (IL-6, TNF-α, IL-1β, […]) in THP1 monocytic/macrophage cells primed with LPS and co-incubated with or without the selected compounds at 10 μM (FIG. 1).
Values are normalized relative to GAPDH mRNA and are expressed as mean±SEM (n=3); #p<0.05.
Colon samples were immediately frozen in liquid nitrogen and stored at −80° C. until used, mechanically homogenated with the aid of a pestle, and the obtained materials re-suspended in 1 ml of Trizol (Thermo Scientific™). THP1 cells were spin-dried at 1300 rpm and then the pellets were re-suspended in 1 ml of Trizol (Thermo Scientific™). The RNA was extracted according to the manufacturer's protocol. After purification from genomic DNA by DNase-I treatment (Thermo Scientific™), 1 μg of RNA from each sample was reverse-transcribed using random hexamer primers with Superscript-II (Thermo Scientific™) in a 20 μL reaction volume; 10 ng cDNA were amplified in a 20 μL solution containing 200 nM of each primer and 10 μL of SYBR Select Master Mix (Thermo Scientific™). All reactions were performed in triplicate, and the thermal cycling conditions were as follows: 3 min at 95° C., followed by 40 cycles of 95° C. for 15 s, 56° C. for 20 s and 72° C. for 30 s, using a Step One Plus machine (Applied Biosystem). The relative mRNA expression was calculated accordingly to the 2^(−ΔCt) method comparing the expression of different genes to that of GAPDH housekeeping. Primers were designed using the software PRIMER3 (http://frodo.wi.mit.edu/primer3/) using published data obtained from the NCBI database. The primer used for murine samples were conducted as follows (forward and reverse): Gapdh (for […] (SEQ ID: 1); rev […] (SEQ ID: 2)), Tnf-α (for […] (SEQ ID: 3); rev […] (SEQ ID: 4)), Il-6 (for […] (SEQ ID: 5); rev […] (SEQ ID: 6)), Il-1β (for […] (SEQ ID: 7); rev […] (SEQ ID: 8)), Il-10 (for […] (SEQ ID: 9); rev […] (SEQ ID: 10)), Gpbar1 (for […] (SEQ ID: 11); rev […] (SEQ ID: 12)). […]

Which results are given for `CC[C@]1(O)C[C@H]2[C@@H]3CC[C@H]([C@H](C)CC#N)[C@@]3(C)CC[C@@H]2[C@@]2(C)CC[C@@H](O)C[C@@H]12` [PBT110B, 3α,6α-dihydroxy-6β-ethyl-24-nor-5β-cholan-23-nitrile]?
IL1-β production (relative mRNA expression): significantly reduced; IL-6 production (relative mRNA expression): significantly reduced; TNF-α production (relative mRNA expression): significantly reduced; expression of anti-inflammatory gene IL-10: increased
